EP0429333B1, “Process for producing oxazopyrroloquinolines, novel oxazopyrroloquinolines, and use of oxazopyrroloquinolines” (priority 1989, dated 1991)

Key:
[1] = test system: male SPF-ICR mice; assay: in vivo; conditions: mouse, in vivo
Protocol: (1) Acute toxicity test: • (i) To male SPF-ICR mice of 5 weeks old (supplied by Charles River Co.) were intraperitoneally administered PQQ·2Na and OPQs in the dosages of 20, 40, 80, 160 and 200 mg/kg body weight of mouse, respectively and they were bred at 25°C for 14 days. OPQ, 1-methylpropyl OPQ, 2-methylthioethyl OPQ, and benzyl OPQ were used as the OPQs. One group consisted of 8 mice. […] One group consisted of 8 mice. […] They were bred at 25°C for 14 days. One group consisted of eight mice. […] (2) Toxicity to kidney (i) Toxicity to kidney determined by urine examination: In the same manner as in the acute toxicity test, PQQ·2Na and OPQs were respectively intraperitoneally administered to mice and these mice were bred. Urine was collected every day and concentration of glucose in urine was obtained using Uristex II (manufactured by Miles·Sankyo Co.). […]

[2] = Solubility of the isolated compound, described in words; format: physicochemical; conditions: for solubility in water / solubility under neutral and alkaline conditions: water
[3] = biological target: aldose reductase of kidney (Canis lupus familiaris, UniProt A0A8I3P2L6); assay: Inhibitory effect on aldose reductase of kidney; format: biochemical, dog; conditions: read-out: Degree of inhibition for aldose reductase (%); for inhibition at 1 µM: concentration 1x10^-6 M; for inhibition at 2 µM: concentration 2x10^-6 M; for inhibition at 5 µM: concentration 5x10^-6 M; for inhibition at 0.5 µM: concentration 5x10^-7 M
Protocol: Medulla of kidney of dog was homogenized with 10mM phosphoric acid buffer (pH 7.0) containing 2mM dithiothreitol in an amount of four times the volume of kidney medulla and subjected to centrifugation. The supernatant liquid was purified by affinity chromatography, gel filtration and chromatofocusing to obtain electrophoretically homogeneous aldose reductase. 0.05 ml of 3mM NADPH, 0.1 ml of DL-glyceraldehyde and 0.04 ml of distilled water were added to 0.8 ml of 0.1M phosphoric acid buffer (pH 6.2) and left to stand at 25°C for 3 minutes. Then, 0.01 ml of the aldose reductase solution was added thereto to start reaction and decreasing of absorbance of 340 nm was measured at 25°C with time. Amount of enzyme which consumes 1 µmole of NADPH for 1 minute was taken as 1 unit.

[4] = test system: carbon tetrachloride (CCl4)-induced liver diseases; assay: Pharmacological activity on carbon tetrachloride-induced liver diseases; format: in vivo, SD rats; conditions: 5mg/kg rat twice, CCl4 1 ml/kg rat; for Total bilirubin: Table 27: CCl4 only 1.2, no administration 0.5; for GPT: Table 27: CCl4 only 818, no administration 16; for GOT: Table 27: CCl4 only 3308, no administration 144
[5] = test system: kidney; assay: Toxicity to kidney determined by blood examination; format: in vivo, mice; conditions: serum; for Creatinine: Table 2, no administration 0.8; for Urea nitrogen: Table 2, no administration 24; for Glucose: Table 2, no administration 78
Protocol: After one day from administration, the mice were fasted (only water was given) and after lapse of 18 hours, blood was collected and serum was obtained therefrom. Glucose, urea nitrogen and creatinine in the serum were examined using FUJI Dry Chemslide (manufactured by Fuji Photo Film Co., Ltd.). […]
Thereafter, the mice were fasted (with giving only water) and after lapse of 18 hours, blood was collected and serum was obtained therefrom. Contents of glucose, urea nitrogen and creatinine in serum were obtained using FUJI Dry Chemslide. The results were shown by average value for eight mice.

[6] = biological target: T1, aldose reductase of rabbit lens (Oryctolagus cuniculus, UniProt P15122); assay: Inhibitory effect on aldose reductase of lens; format: biochemical; conditions: read-out: Degree of inhibition for aldose reductase (%)
T1 construct: to obtain electrophoretically homogeneous aldose reductase; from tissue; host or cells: rabbit lens
Protocol: 0.05 ml of 3mM NADPH, 0.1 ml of DL-glyceraldehyde and 0.04 ml of distilled water were added to 0.8 ml of 0.1M phosphoric acid buffer (pH 6.2) and left to stand at 25°C for 3 minutes. Then, 0.01 ml of the aldose reductase solution was added thereto to start reaction and decreasing of absorbance of 340 nm was measured at 25°C with time. Amount of enzyme which consumes 1 µmole of NADPH for 1 minute was taken as 1 unit.
Enzyme activity was measured under the same conditions as in the above measurement of aldose reductase activity except that 0.04 ml of aqueous solution of inhibitory substance in various concentrations was added in place of 0.04 ml of distilled water and degree of inhibition was calculated from comparison of the enzyme activity with the enzyme activity obtained in the absence of inhibitor. (1) OPQ, (2) methyl OPQ, (3) 1-methylpropyl OPQ, (4) 2-methylpropyl OPQ, (5) 2-carbamoylethyl OPQ, (6) hydroxymethyl OPQ, (7) 2-methylthioethyl OPQ, (8) 2-carboxyethyl OPQ, (9) 4-hydroxybenzyl OPQ, (10) 1-methylethyl OPQ, and (11) benzyl OPQ were used as inhibition substances and (12) PQQ was used as control.
Lens of rabbit was homogenized with 10mM phosphoric acid buffer (pH 7.0) containing 2mM dithiothreitol in an amount of two times the volume of the lens and subjected to centrifugation. The supernatant liquid was purified by affinity chromatography, gel filtration and chromatofocusing to obtain electrophoretically homogeneous aldose reductase. Using (1) OPQ, (2) 1-methylpropyl OPQ, (3) 2-methylpropyl OPQ, (4) hydroxymethyl OPQ, and (5) 1-methylethyl OPQ as inhibition substances, degree of inhibition of these substances for aldose reductase of rabbit lens was examined in the same manner in Example 32.

[7] = test system: peritoneal macrophage; assay: Test on macrophage-chemotaxis after intraperitoneal administration; format: in vivo, C3H/He mice; conditions: for (2) Chemotaxis factor was present: 50 % zymosan treated serum, no administration 40; for (2) - (1) Chemotaxied macrophage: no administration 29; for Relative activity of group (%): no administration = 100; for (1) Chemotaxis factor was not present: total number of chemotaxied macrophages at 3 points, no administration 11
Protocol: Thirtytwo C3H/He mice (male, 7 weeks old, average body weight 20 g, supplied by Japan Charles River Co.) were divided into 4 groups (A - D) of 8 mice each.
A solution of OPQ in physiological saline of pH 7.0 was intraperitoneally administered to each mouse 7 times, namely, on the 1st day, 2nd day, 3rd day, 4th day, 5th day, 6th day and 7th day. Dosage for one administration per one mouse was as follows: That is, 0.2 ml of the solution containing 0.2 mg/ml of OPQ for group B, 0.2 ml of the solution containing 0.5 mg/ml of OPQ for group C, 0.2 ml of the solution containing 1.0 mg/ml of OPQ for group D and 0.2 ml of physiological saline for group A.
On the 8th day from starting of the experiment, the mice were anesthetized with ether and blood was drawn from carotid artery and 5 ml of cold Hanks solution was intraperitoneally injected and exudate cells for the abdominal cavity were collected. Exudate cells for the abdominal cavity of respective groups were gathered, washed three times with cold Hanks solution and suspended in RPMI medium at 5 x 10^5 cells/ml and macrophage-chemotaxis was measured. 50 % zymosan treated serum was used as chemotaxis factor and examination was conducted at three points for each sample. Number of chemotaxied macrophage was measured on microscope and 13 visual fields was examined for one point and the results are shown in Table 2. The value in the table is a total number of chemotaxied macrophages at 3 points for each sample. Preparation of Hanks solution and RPMI medium will be explained below.
Test on macrophage-chemotaxis was conducted in the same manner as in Example 36 except that hydroxymethyl OPQ was intraperitoneally administered to each mouce 3 times of the 1st day, the 2nd day and the 3rd day in the following dosage for one administration per one mouse: 0.2 ml of hydroxymethyl OPQ solution containing 0.5 mg/ml of hydroxymethyl OPQ for group B, 0.2 ml of the solution containing 1.0 mg/ml of hydroxymethyl OPQ for group C, and 0.2 ml of the solution containing 1.5 mg/ml of hydroxymethyl OPQ for group D and exudate cells for the abdominal cavity were collected on the 4th day from starting of experiment.
In Examples 36 - 40, macrophage activity was examined according to chemotaxis of peritoneal macrophage (literature 1) and activity of T cell and that of B cell were examined according to blast transformation reaction using concanavalin A and lipopolysaccharide, (LPS) as mitogen (literature 2). Literature 1: "Function of Macrophage and Method of Measurement of Function", pages 61-65 1985), edited by Educational Committee of Japan Bacteriological Society and published from Saikon Shuppan Co.) Literature 2: "New Method of Searching of Function of Lymphocytes", pages 350-355 (1987) edited by Junichi Yada and Michio Fujiwara and published from Chugai Igaku Co.

[8] = 40 mg/kg mouse intraperitoneally
[9] = 80 mg/kg mouse intraperitoneally
[10] = 160 mg/kg mouse intraperitoneally
[11] = 200 mg/kg mouse intraperitoneally
[12] = 5 mg/kg mouse x 3 days intraperitoneally
[13] = 10 mg/kg mouse x 3 days intraperitoneally
[14] = 15 mg/kg mouse x 3 days intraperitoneally

SMILES | death of mice [1] | solubility in acetone and diethyl ether [2] | solubility in lower alcohols [2] | solubility in water [2] | solubility under neutral and alkaline conditions [2] | inhibition at 1 µM [3] | inhibition at 2 µM [3] | inhibition at 5 µM [3] | inhibition at 0.5 µM [3] | Total bilirubin [4] | GPT [4] | GOT [4] | Creatinine [5, 8] | Urea nitrogen [5, 8] | Glucose [5, 8] | Creatinine [5, 9] | Urea nitrogen [5, 9] | Glucose [5, 9] | Creatinine [5, 10] | Urea nitrogen [5, 10] | further results
CSCCc1nc2c3nc(C(=O)O)cc(C(=O)O)c3c3[nH]c(C(=O)O)cc3c2o1 [2-Methylthioethyl OPQ, 5-(2-Methylthioethyl)-2,8,10-tricarboxy-1H-oxazo-[5,4-h]-pyrrolo[2,3-f]quinoline] | no mice died | did not dissolve | dissolved | easily soluble | especially soluble | 42% | 54.9% | 81.8% | 24.3% | 0.7 mg/dL | 157 U/l | 693 U/l | 0.8 mg/dL | 26 mg/dL | 96 mg/dL | 0.7 mg/dL | 26 mg/dL | 88 mg/dL | 0.6 mg/dL | 26 mg/dL | inhibition at 10 µM ([3]; concentration 1x10^-5 M): 83%; Glucose [5, 10]: 97 mg/dL; Creatinine [5, 11]: 0.7 mg/dL; Urea nitrogen [5, 11]: 26 mg/dL; Glucose [5, 11]: 72 mg/dL
O=C(O)c1cc(C(=O)O)c2c(n1)c1nc(Cc3ccccc3)oc1c1cc(C(=O)O)[nH]c12 [Benzyl OPQ, 5-Benzyl-2,8,10-tricarboxy-1H-oxazo[5,4-h]-pyrrolo-[2,3-f]-quinoline] | no mice died | did not dissolve | dissolved | easily soluble | especially soluble | 35.7% | 46.4% | 63.3% | – | 0.7 mg/dL | 233 U/l | 993 U/l | 0.7 mg/dL | 23 mg/dL | 90 mg/dL | 0.7 mg/dL | 23 mg/dL | 87 mg/dL | 0.7 mg/dL | 26 mg/dL | Glucose [5, 10]: 87 mg/dL; Creatinine [5, 11]: 0.7 mg/dL; Urea nitrogen [5, 11]: 25 mg/dL; Glucose [5, 11]: 84 mg/dL
O=C(O)c1cc(C(=O)O)c2c(n1)c1nc(CO)oc1c1cc(C(=O)O)[nH]c12 [Hydroxymethyl OPQ, 5-Hydroxymethyl-2,8,10-tricarboxy-1H-oxazo[5,4-h]-pyrrolo[2,3-f]-quinoline] | – | did not dissolve | dissolved | easily soluble | very easily soluble | 57.9% | 68.2% | – | 41.1% | – | – | – | – | – | – | – | – | – | – | – | inhibition at 1 µM ([6]; concentration 1x10^-6 M): 50.1%; inhibition at 2 µM ([6]; concentration 2x10^-6 M): 60.4%; inhibition at 0.5 µM ([6]; concentration 5x10^-7 M): 31.9%; inhibition at 0.2 µM ([3]; concentration 2x10^-7 M): 26.7%; (2) Chemotaxis factor was present [7, 12]: 61; (2) - (1) Chemotaxied macrophage [7, 12]: 44; Relative activity of group (%) [7, 12]: 152%; (1) Chemotaxis factor was not present [7, 12]: 17; (2) Chemotaxis factor was present [7, 13]: 66; (2) - (1) Chemotaxied macrophage [7, 13]: 56; Relative activity of group (%) [7, 13]: 193%; (1) Chemotaxis factor was not present [7, 13]: 10; (2) Chemotaxis factor was present [7, 14]: 48; (2) - (1) Chemotaxied macrophage [7, 14]: 39; Relative activity of group (%) [7, 14]: 134%; (1) Chemotaxis factor was not present [7, 14]: 9
